According to BindingDB's records for doi:10.1016/j.bioorg.2014.02.002 (Swami Ramanand Teerth Marathwada University, 2014):
Values joined by “and” are separate entries in the source; they are usually repeats but may differ in a detail not shown here. Equal entries are not always repeated.

Biological target: Aldose reductase (Capra hircus)
Assay: The reaction mixture contained 1 mL of 1 M potassium phosphate buffer (pH 6.2), 0.4 mM lithium sulfate and 5 µM 2-mercaptoethanol, 10 µM DL-glyceraldehyde, […], and crude enzyme. The reaction mixture was incubated at 37 °C for 10 min. The reaction was initiated by the addition of NADPH and the decrease in absorbance was measured a

NC(=S)N1C=C(N)C(=Cc2ccc(F)cc2)C1=O [(3Z)‐4‐amino‐3‐[(4‐methoxyphenyl)methylidene]‐2‐ oxopyrrole‐1‐carbothioamide (2c)]
IC50: 11.9 µM and 12.8 µM

NC(=S)N1N=C(N)C(=Cc2cn(-c3ccccc3)nc2-c2ccc(Cl)cc2)C1=O [(4E)‐3‐amino‐4‐{[3‐(4‐chlorophenyl)‐1‐ phenylpyrazol‐4‐yl]methylidene}‐5‐oxopyrazole‐1‐ carbothioamide (2e)]
IC50: 6.3 µM

NC1=NNC(=O)C1=Cc1cn(-c2ccccc2)nc1-c1ccc(Cl)cc1 [(4E)‐5‐amino‐4‐{[3‐(4‐chlorophenyl)‐1‐ phenylpyrazol‐4‐yl]methylidene}‐2H‐pyrazol‐3‐one (1e)]
IC50: 9.2 µM

COc1ccc(-c2cc(C=C3C(=O)N(C(N)=S)N=C3N)n(-c3ccccc3)n2)cc1 [(4Z)‐3‐amino‐4‐{[5‐(4‐methoxyphenyl)‐2‐ phenylpyrazol‐3‐yl]methylidene}‐5‐oxopyrazole‐1‐ carbothioamide (2d)]
IC50: 8.1 µM
